# Data published in US20250276972A1, “COMPOUNDS AS CASEIN KINASE INHIBITORS” (GRITSCIENCE BIOPHARMACEUTICALS CO.,LTD., priority 2020, published 2025).
# Target: T1, CK1δ (Homo sapiens, UniProt P48730)
# T1 construct: endogenous in cells; host or cells: Bmal1-dLuc or Per2-dLuc U2OS cells
# Assay: CK1δ inhibition (EC50); Bmal1-dLuc or Per2-dLuc U2OS luminescence rhythm period assay
# Assay type: cell-based
# Conditions: Table 3
# Method: Bmall-dLuc or Per2-dLuc U2OS cells were suspended in the culture medium (DMEM supplemented with 10% fetal bovine serum, 0.29 mg/mL L-glutamine, 100 units/mL penicillin, and […] streptomycin) and plated onto 96-well white solid-bottom plates at 200 μL (10,000 cells) per well. After 2 days, 100 μL of the explant medium (DMEM supplemented with 2% B27, 10 mM HEPES, 0.38 mg/mL sodium bicarbonate, 0.29 mg/mL L-glutamine, 100 units/mL penicillin, […], 0.1 mg/mL gentamicin, and 1 mM luciferin, pH 7.2) was dispensed to each well, followed by the application of 1 μL of a compound of the present application (dissolved in DMSO; final concentration was 0.7% in DMSO). The plate was covered with an optically clear film and set to microplate reader (Infinite M200, Tecan).
# T1 sequence (P48730 whole entry): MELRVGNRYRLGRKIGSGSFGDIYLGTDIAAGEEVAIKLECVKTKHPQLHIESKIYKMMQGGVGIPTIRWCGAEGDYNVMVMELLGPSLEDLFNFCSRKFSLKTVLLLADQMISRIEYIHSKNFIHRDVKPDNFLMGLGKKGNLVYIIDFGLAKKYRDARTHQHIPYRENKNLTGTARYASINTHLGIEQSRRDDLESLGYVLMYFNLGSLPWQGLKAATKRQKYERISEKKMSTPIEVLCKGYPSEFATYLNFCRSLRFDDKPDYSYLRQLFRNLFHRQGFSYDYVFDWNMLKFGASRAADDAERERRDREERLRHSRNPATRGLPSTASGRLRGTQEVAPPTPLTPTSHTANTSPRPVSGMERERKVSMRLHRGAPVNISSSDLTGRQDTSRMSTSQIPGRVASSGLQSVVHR
row,Structure (SMILES),EC50 [µM]
1,"CCC(=O)Nc1cc(-c2c(-c3ccc(F)cc3)nn3c2CN(C(=O)CC)CC3)ccn1 [Compound I-97, N-(4-(2-(4-fluorophenyl)-5-propionyl-4,5,6,7-tetrahydropyrazolo[1,5-a]pyrazin-3-yl)pyridin-2-yl)propionamide]",0.9
2,"CC(=O)N1CCn2nc(-c3ccc(F)cc3)c(-c3ccnc(NC(=O)CC4CC4)c3)c2C1 [Compound I-75, N-(4-(5-acetyl-2-(4-fluorophenyl)-4,5,6,7-tetrahydropyrazolo[1,5-a]pyrazin-3-yl)pyridin-2-yl)-2-cyclopropylacetamide]",0.2
3,"CC(C)C(=O)Nc1cc(-c2c(-c3ccc(F)cc3)nn3c2CN(C(=O)C(C)C)CC3)ccn1 [Compound I-98, N-(4-(2-(4-fluorophenyl)-5-isobutyryl-4,5,6,7-tetrahydropyrazolo[1,5-a]pyrazin-3-yl)pyridin-2-yl)isobutyramide]",2.1
4,"CCN1CCn2nc(-c3ccc(F)cc3)c(-c3ccnc(NC(C)=O)c3)c2C1 [Compound I-26, N-(4-(5-ethyl-2-(4-fluorophenyl)-4,5,6,7-tetrahydropyrazolo[1,5-a]pyrazin-3-yl)pyridin-2-yl)acetamide]",0.4
5,"CC(=O)Nc1cc(-c2c(-c3ccc(F)cc3)nn3c2CNCC3)ccn1 [Compound I-99, N-(4-(2-(4-fluorophenyl)-4,5,6,7-tetrahydropyrazolo[1,5-a]pyrazin-3-yl)pyridin-2-yl)acetamide]",0.7
6,"CC(=O)N1CCn2nc(-c3ccc(F)cc3)c(-c3ccnc(NC(=O)c4ccccc4)c3)c2C1 [Compound I-73, N-(4-(5-acetyl-2-(4-fluorophenyl)-4,5,6,7-tetrahydropyrazolo[1,5-a]pyrazin-3-yl)pyridin-2-yl)benzamide]",0.11
7,"CC(=O)Nc1cc(-c2c(-c3ccc(F)cc3)nn3c2CN(C2CC(F)C2)CC3)ccn1 (stereo not shown) [Compound I-49, N-(4-(5-(3-fluorocyclobutyl)-2-(4-fluorophenyl)-4,5,6,7-tetrahydropyrazolo[1,5-a]pyrazin-3-yl)pyridin-2-yl)acetamide]",1.3
8,"CC(=O)Nc1cc(-c2c(-c3ccc(F)cc3)nn3c2CN(CC(F)(F)F)CC3)ccn1 [Compound I-29, N-(4-(2-(4-fluorophenyl)-5-(2,2,2-trifluoroethyl)-4,5,6,7-tetrahydropyrazolo[1,5-a]pyrazin-3-yl)pyridin-2-yl)acetamide]",0.6
9,"CC(=O)Nc1cc(-c2c(-c3ccc(F)cc3)nn3c2CN(Cc2ccccc2)CC3)ccn1 [Compound I-95, N-(4-(5-benzyl-2-(4-fluorophenyl)-4,5,6,7-tetrahydropyrazolo[1,5-a]pyrazin-3-yl)pyridin-2-yl)acetamide]",1.7
10,"CC(=O)Nc1cc(-c2c(-c3ccc(F)cc3)nn3c2CN(C(=O)C(F)(F)F)CC3)ccn1 [Compound I-30, N-(4-(2-(4-fluorophenyl)-5-(2,2,2-trifluoroacetyl)-4,5,6,7-tetrahydropyrazolo[1,5-a]pyrazin-3-yl)pyridin-2-yl)acetamide]",0.5
11,CC(=O)Nc1cc(-c2c(-c3ccc(F)cc3)nn3c2CN(C2CC2)CC3)ccn1 [Compound I-28],0.6
12,"CC(=O)Nc1cc(-c2c(-c3ccc(F)cc3)nn3c2CN(C(C)C)CC3)ccn1 [Compound I-27, N-(4-(2-(4-fluorophenyl)-5-isopropyl-4,5,6,7-tetrahydropyrazolo[1,5-a]pyrazin-3-yl)pyridin-2-yl)acetamide]",0.5
13,"CC(=O)Nc1cc(-c2c(-c3ccc(F)cc3)nn3c2CN(C)CC3)ccn1 [Compound I-71, N-(4-(2-(4-fluorophenyl)-5-methyl-4,5,6,7-tetrahydropyrazolo[1,5-a]pyrazin-3-yl)pyridin-2-yl)acetamide]",1
14,"CC(=O)N1CCn2nc(-c3ccc(F)cc3)c(-c3ccnc(Nc4ccccc4)c3)c2C1 [Compound I-74, 1-(2-(4-fluorophenyl)-3-(2-(phenylamino)pyridin-4-yl)-6,7-dihydropyrazolo[1,5-a]pyrazin-5(4H)-yl)ethan-1-one]",1.6
15,"CC(=O)N1CCn2nc(-c3ccc(F)cc3)c(-c3ccnc(Nc4ccncc4)c3)c2C1 [Compound I-101, 1-(2-(4-fluorophenyl)-3-(2-(pyridin-4-ylamino)pyridin-4-yl)-6,7-dihydropyrazolo[1,5-a]pyrazin-5(4H)-yl)ethan-1-one]",2.2
16,"Cc1cc(-c2c(-c3ccc(F)cc3)nn3c2CN(C2COC2)CC3)ccn1 [Compound I-12, 2-(4-fluorophenyl)-3-(2-methylpyridin-4-yl)-5-(oxetan-3-yl)-4,5,6,7-tetrahydropyrazolo[1,5-a]pyrazine]",20
17,CC(=O)Nc1cc(-c2c(-c3ccc(F)cc3)nn3c2CN(C(C)=S)CC3)ccn1 [Compound I-57],0.5
18,"CNCCN1CCn2nc(-c3ccc(F)cc3)c(-c3ccnc(NC(C)=O)c3)c2C1 [Compound I-41, N-(4-(2-(4-fluorophenyl)-5-(2-(methylamino)ethyl)-4,5,6,7-tetrahydropyrazolo[1,5-a]pyrazin-3-yl)pyridin-2-yl)acetamide]",0.6
19,"CC(=O)N1CCn2nc(-c3ccc(F)cc3)c(-c3ccnc(NC(=O)Cc4ccccc4)c3)c2C1 [Compound I-72, N-(4-(5-acetyl-2-(4-fluorophenyl)-4,5,6,7-tetrahydropyrazolo[1,5-a]pyrazin-3-yl)pyridin-2-yl)-2-phenylacetamide]",0.01
20,"CC(=O)Nc1cc(-c2c(-c3ccc(F)cc3)nn3c2CN(C2COC2)CC3)ccn1 [Compound I-46, N-(4-(2-(4-fluorophenyl)-5-(oxctan-3-yl)-4,5,6,7-tetrahydropyrazolo[1,5-a]pyrazin-3-yl)pyridin-2-yl)acetamide]",1.2
21,"CC(C)(C)C(=O)Nc1cc(-c2c(-c3ccc(F)cc3)nn3c2CN(S(C)(=O)=O)CC3)ccn1 [Compound I-32, N-(4-(2-(4-fluorophenyl)-5-(methylsulfonyl)-4,5,6,7-tetrahydropyrazolo[1,5-a]pyrazin-3-yl)pyridin-2-yl)pivalamide]",0.8
22,"CC(=O)N1CCn2nc(-c3ccc(F)cc3)c(-c3ccnc(NC(=O)c4ccn(C)n4)c3)c2C1 [Compound I-76, N-(4-(5-acetyl-2-(4-fluorophenyl)-4,5,6,7-tetrahydropyrazolo[1,5-a]pyrazin-3-yl)pyridin-2-yl)-1-methyl-1H-pyrazole-3-carboxamide]",1
23,"CC(=O)Nc1cc(-c2c(-c3ccc(F)cc3)nn3c2CN(CCO)CC3)ccn1 [Compound I-31, N-(4-(2-(4-fluorophenyl)-5-(2-hydroxyethyl)-4,5,6,7-tetrahydropyrazolo[1,5-a]pyrazin-3-yl)pyridin-2-yl)acetamide]",0.3
24,"CCCC(=O)Nc1cc(-c2c(-c3ccc(F)cc3)nn3c2CN(C(=O)CCC)CC3)ccn1 [Compound I-56, N-(4-(5-butyryl-2-(4-fluorophenyl)-4,5,6,7-tetrahydropyrazolo[1,5-a]pyrazin-3-yl)pyridin-2-yl)butyramide]",0.6
25,"O=C(Cc1ccc(F)cc1)Nc1cc(-c2c(-c3ccc(F)cc3)nn3c2CN(Cc2ccccc2)CC3)ccn1 [Compound I-94, N-(4-(5-benzyl-2-(4-fluorophenyl)-4,5,6,7-tetrahydropyrazolo[1,5-a]pyrazin-3-yl)pyridin-2-yl)-2-(4-fluorophenyl)acetamide]",0.2
